Data as given in patent publication US9963467B2, “Boronic acid derivatives and therapeutic uses thereof” (Rempex Pharmaceuticals, Inc., priority 2014, dated 2018).

Columns and labels:
[1] = molecular target: P99 (Enterobacter cloacae, UniProt P05364); assay: Ki, nitrocefin cleavage by purified enzyme, P99; assay type: biochemical; conditions: nitrocefin reporter substrate; read-out: Ki (P99, NCF)
How it was run: (§1)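 10 min RT preincubation, enzyme with inhibitor series in reaction buffer. Substrate nitrocefin; kinetic read 490 nm, 10 sec intervals, 10 min total.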

[2] = test system: EC1010 (CMY-6); assay: organism not typed; assay type: cell-based
[3] = Intravenous pharmacokinetics; assay type: in vivo; conditions: rat, plasma; rats, 20 mg/kg, intravenous infusion over 0.5 hours; read-out: Free Cl (converted)
Protocol: Rats (n=3 per compound) were administered by a single infusion. Intravenous doses were infused over 0.5 hours via an indwelling femoral vein cannula. […] (˜0.3 mL) samples were collected from each rat at designated time points up to 24 hours. Blood samples were centrifuged within 5 min of collection at 12000 g for 5 min to obtain plasma. The plasma samples were stored at −80° C. until analyzed. Data were analyzed using WinNonlin. The doses of all compounds tested were 20 mg/kg.

[4] = molecular target: CTX-M-14 (Escherichia coli, UniProt Q9L5C7); assay: Ki, nitrocefin cleavage by purified enzyme, CTX-M-14; assay type: biochemical; conditions: nitrocefin reporter substrate; read-out: Ki (CTX-M-14, NCF)
Chain of CTX-M-14 (Q9L5C7 29-291): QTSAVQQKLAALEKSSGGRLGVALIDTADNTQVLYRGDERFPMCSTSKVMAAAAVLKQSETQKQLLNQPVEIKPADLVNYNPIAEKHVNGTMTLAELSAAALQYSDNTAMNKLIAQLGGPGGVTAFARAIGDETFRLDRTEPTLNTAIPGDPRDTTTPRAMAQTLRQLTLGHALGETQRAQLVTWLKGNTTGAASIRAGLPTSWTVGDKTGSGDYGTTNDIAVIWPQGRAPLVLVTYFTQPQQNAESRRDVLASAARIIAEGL
How it was run: as §1

[5] = test system: ECL1002; assay: Tigemonam potentiation (MPC@4), ECL1002; assay type: cell-based; conditions: BLI with tigemonam at 4 μg/mL
[6] = test system: KP1010 (SHV-12); assay: Tigemonam potentiation (MPC@4), KP1010; assay type: cell-based
[7] = test system: ec302 (TEM-10); assay: Aztreonam potentiation (MPC@4), ec302; assay type: cell-based; conditions: BLI with aztreonam at 4 μg/mL
[8] = molecular target: OXA-48 (Klebsiella pneumoniae, UniProt Q6XEC0); assay: Ki, nitrocefin cleavage by purified enzyme, OXA-48; assay type: biochemical; conditions: nitrocefin reporter substrate; read-out: Ki (OXA-48, NCF)
Chain of OXA-48 (Q6XEC0 23-265, looked up, species assumed): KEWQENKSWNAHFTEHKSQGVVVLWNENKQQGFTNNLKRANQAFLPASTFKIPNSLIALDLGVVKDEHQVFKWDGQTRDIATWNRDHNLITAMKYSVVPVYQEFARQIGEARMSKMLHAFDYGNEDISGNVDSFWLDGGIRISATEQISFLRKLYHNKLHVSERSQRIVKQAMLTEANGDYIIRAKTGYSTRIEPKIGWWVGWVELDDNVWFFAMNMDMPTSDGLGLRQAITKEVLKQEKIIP
How it was run: as §1

[9] = test system: KP1086 (OXA-48); assay: Biapenem potentiation (MPC@1), KP1086; conditions: BLI with biapenem at 1 μg/mL
[10] = test system: ec308 (SHV-5); assay: Tigemonam potentiation (MPC@4), ec308; assay type: cell-based
[11] = test system: KP1004 (KPC-2); assay: Biapenem potentiation (MPC@1), KP1004; conditions: BLI with biapenem at 1 μg/mL
[12] = test system: EC1010 (CMY-6); assay: Tigemonam potentiation (MPC@4), EC1010; assay type: cell-based; conditions: BLI with tigemonam at 4 μg/mL
[13] = test system: ECL1002; assay: Aztreonam potentiation (MPC@4), ECL1002; assay type: cell-based; conditions: BLI with aztreonam at 4 μg/mL
[14] = test system: ec302 (TEM-10); assay: Tigemonam potentiation (MPC@4), ec302; assay type: cell-based
[15] = molecular target: Pa AmpC (Pseudomonas aeruginosa, UniProt P24735); assay: Ki, nitrocefin cleavage by purified enzyme, Pa AmpC; assay type: biochemical; conditions: nitrocefin reporter substrate; read-out: Ki (Pa AmpC, NCF)
Chain of Pa AmpC (P24735 27-397): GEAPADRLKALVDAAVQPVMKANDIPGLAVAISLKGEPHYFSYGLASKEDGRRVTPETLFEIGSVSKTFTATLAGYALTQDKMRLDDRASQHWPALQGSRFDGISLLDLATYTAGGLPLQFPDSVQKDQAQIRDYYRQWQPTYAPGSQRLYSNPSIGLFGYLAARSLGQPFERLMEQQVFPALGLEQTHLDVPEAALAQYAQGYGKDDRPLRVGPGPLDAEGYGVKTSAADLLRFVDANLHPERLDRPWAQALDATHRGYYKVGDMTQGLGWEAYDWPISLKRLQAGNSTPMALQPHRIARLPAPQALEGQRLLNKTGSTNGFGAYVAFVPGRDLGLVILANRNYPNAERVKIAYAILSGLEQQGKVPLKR
How it was run: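 Enzyme–inhibitor mixtures, spanning various inhibitor concentrations, were held 10 min at room temperature in reaction buffer prior to nitrocefin addition. Spectrophotometric monitoring of substrate cleavage at 490 nm then ran 10 min at 10-sec intervals to yield Ki.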

[16] = test system: KP1005 (CTX-M-14); assay: Tigemonam potentiation (MPC@4), KP1005; assay type: cell-based; conditions: BLI with tigemonam at 4 μg/mL
[17] = molecular target: SHV-12 (Klebsiella pneumoniae, UniProt P0AD64, E235K/G234S/L31Q); assay: Ki, nitrocefin cleavage by purified enzyme, SHV-12; assay type: biochemical; conditions: nitrocefin reporter substrate; read-out: Ki (SHV-12, NCF)
Chain of SHV-12 (P0AD64 22-286 L31Q/G234S/E235K): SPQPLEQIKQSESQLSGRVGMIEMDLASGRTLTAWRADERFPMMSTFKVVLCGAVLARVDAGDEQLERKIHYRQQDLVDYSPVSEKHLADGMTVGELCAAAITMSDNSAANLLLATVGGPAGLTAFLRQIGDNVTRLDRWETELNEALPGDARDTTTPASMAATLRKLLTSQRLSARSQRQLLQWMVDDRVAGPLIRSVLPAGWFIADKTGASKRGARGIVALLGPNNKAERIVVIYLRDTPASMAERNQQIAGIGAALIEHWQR
How it was run: as §1

[18] = molecular target: KPC-2 (Klebsiella pneumoniae, UniProt Q9F663); assay: Ki, nitrocefin cleavage by purified enzyme, KPC-2; assay type: biochemical; conditions: nitrocefin reporter substrate; read-out: Ki (KPC-2, NCF)
Chain of KPC-2 (Q9F663 25-293, looked up, species assumed): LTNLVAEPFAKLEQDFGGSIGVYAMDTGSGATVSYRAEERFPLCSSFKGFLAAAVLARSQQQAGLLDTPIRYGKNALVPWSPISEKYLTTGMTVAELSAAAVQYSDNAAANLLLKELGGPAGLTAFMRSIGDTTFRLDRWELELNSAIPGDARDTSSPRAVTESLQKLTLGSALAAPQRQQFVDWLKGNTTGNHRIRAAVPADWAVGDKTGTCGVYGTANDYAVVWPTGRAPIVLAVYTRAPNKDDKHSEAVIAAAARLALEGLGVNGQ
How it was run: as §1

[19] = test system: KP1009 (CTX-M-15); assay: Tigemonam potentiation (MPC@4), KP1009; assay type: cell-based; conditions: BLI with tigemonam at 4 μg/mL
[20] = test system: KP1010 (SHV-12); assay: Aztreonam potentiation (MPC@4), KP1010; assay type: cell-based
[21] = test system: ec308 (SHV-5); assay: Aztreonam potentiation (MPC@4), ec308; assay type: cell-based; conditions: BLI with aztreonam at 4 μg/mL
[22] = test system: KP1005 (CTX-M-14); assay: Aztreonam potentiation (MPC@4), KP1005; assay type: cell-based; conditions: BLI with aztreonam at 4 μg/mL
[23] = test system: PAM1032/KPC-2; assay: Biapenem potentiation MPC64, PAM1032/KPC-2 (efflux proficient); assay type: cell-based, Pseudomonas aeruginosa; conditions: BLI to decrease MIC of biapenem 64-fold; MexAB-OprM overexpressed
Protocol: Efflux of BLIs from Pseudomonas aeruginosa by the MexAB-OprM efflux pump was also evaluated. […] Due to expression of KPC-2 both strains became resistant to biapenem. […] Potency of BLIs to potentiate biapenem in these strains was determined. […] The ratio of MPC64 values for each BLI in PAM1032/KPC-2 (efflux proficient) and PAM1154/KPC-2 (efflux deficient) was determined to generate the Efflux Index (EI).

Chain of P99 (P05364 21-381): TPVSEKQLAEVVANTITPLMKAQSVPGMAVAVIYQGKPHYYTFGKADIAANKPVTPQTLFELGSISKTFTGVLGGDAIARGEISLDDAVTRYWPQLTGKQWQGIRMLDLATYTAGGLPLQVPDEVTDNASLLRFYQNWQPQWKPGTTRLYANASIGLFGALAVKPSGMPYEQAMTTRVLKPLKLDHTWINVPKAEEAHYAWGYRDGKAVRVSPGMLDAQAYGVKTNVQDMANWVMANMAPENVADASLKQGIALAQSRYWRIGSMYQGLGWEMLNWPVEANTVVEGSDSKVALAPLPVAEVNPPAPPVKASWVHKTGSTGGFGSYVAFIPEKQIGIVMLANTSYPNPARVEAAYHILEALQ

| SMILES | AZT MPC4 CMY-6 EC1010 [2] | TIG MPC4 ECL1002 [5] | TIG MPC4 SHV-12 KP1010 [6] | AZT MPC4 TEM-10 ec302 [7] | BPM MPC1 OXA-48 KP1086 [9] | TIG MPC4 SHV-5 ec308 [10] | BPM MPC1 KP1004 KPC-2 [11] | TIG MPC4 TEM-10 ec302 [14] | Ki [15] | TIG MPC4 CTX-M-14 KP1005 [16] | TIG MPC4 CTX-M-15 KP1009 [19] | also measured |
| --- | --- | --- | --- | --- | --- | --- | --- | --- | --- | --- | --- | --- |
| O=C(CSC1CNC1)N[C@H]1Cc2ccc(F)c(C(=O)O)c2OB1O [Compound 2, (R)-3-(2-(azetidin-3-ylthio)acetamido)-7-fluoro-2-hydroxy-3,4-dihydro-2H-benzo[e][1,2]oxaborinine-8-carboxylic acid] | Y (key: X: MIC of less than 1 ng/mL; Y: MIC of 1 μg/mL to 10 μg/mL; Z: MIC of greater than 10 μg/mL) | X (MIC of less than 1 μg/mL) | X (key: X: MIC of less than 1 μg/mL; Y: MIC of 1 μg/mL to 10 μg/mL; Z: MIC of greater than 10 μg/mL) | Y (MIC of 1 μg/mL to 10 μg/mL) | Y (MIC of 1 μg/mL to 10 μg/mL) | X (key: X: MIC of less than 1 μg/mL; Y: MIC of 1 μg/mL to 10 μg/mL; Z: MIC of greater than 10 μg/mL) | X (MIC of less than 1 μg/mL) | Y (key: X: MIC of less than 1 ng/mL; Y: MIC of 1 μg/mL to 10 μg/mL; Z: MIC of greater than 10 μg/mL) | > 10 nM | X (MIC of less than 1 μg/mL) | X (MIC of less than 1 μg/mL) | Ki [1]: > 10 nM; clearance [3]: 10.2 mL/min/kg; Ki [4]: < 1 nM; Ki [8]: > 10 nM; TIG MPC4 CMY-6 EC1010 [12]: X (MIC of less than 1 μg/mL); AZT MPC4 ECL1002 [13]: Y (MIC of 1 μg/mL to 10 μg/mL); Ki [17]: < 1 nM; Ki [18]: > 10 nM |
| Nc1nnc(C(=O)N[C@H]2Cc3cccc(C(=O)O)c3OB2O)s1 [H, reference compound] | X (key: X: MIC of less than 1 ng/mL; Y: MIC of 1 μg/mL to 10 μg/mL; Z: MIC of greater than 10 μg/mL) | X (MIC of less than 1 μg/mL) | X (key: X: MIC of less than 1 μg/mL; Y: MIC of 1 μg/mL to 10 μg/mL; Z: MIC of greater than 10 μg/mL) | X (MIC of less than 1 ng/mL) | Y (MIC of 1 μg/mL to 10 μg/mL) | X (key: X: MIC of less than 1 μg/mL; Y: MIC of 1 μg/mL to 10 μg/mL; Z: MIC of greater than 10 μg/mL) | X (MIC of less than 1 μg/mL) | Y (key: X: MIC of less than 1 ng/mL; Y: MIC of 1 μg/mL to 10 μg/mL; Z: MIC of greater than 10 μg/mL) | < 1 nM | Y (MIC of 1 μg/mL to 10 μg/mL) | X (MIC of less than 1 μg/mL) | AZT MPC4 SHV-12 KP1010 [20]: X (key: X: MIC of less than 1 ng/mL; Y: MIC of 1 μg/mL to 10 μg/mL; Z: MIC of greater than 10 μg/mL); AZT MPC4 SHV-5 ec308 [21]: X (MIC of less than 1 ng/mL); AZT MPC4 CTX-M-14 KP1005 [22]: Y (MIC of 1 μg/mL to 10 μg/mL); PAM1032/KPC-2 Biapenem MPC64 [23]: 80 |
